Assay type in all cases: cell-based
Experiment [1] concerns PD1-ss+10aa/Gaussia Luciferase. In words: Dox-Induced PD1-ss-Gluc Assay. The settings on record: 24 hr, doxycycline-induced, 293FRT/TO cells; read-out: 24 hr Dox Inducible PD1ssGluc 293FRT/TO: Mean IC50. The method in brief:
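Compounds, diluted in DMSO/media with doxycycline, were added to cells plated a day earlier and kept at 37° C under 5% CO2. The cells stably express a Gaussia luciferase construct fused to PD1-ss+10aa, induced via the T-REx system. Unassigned stereochemistry means mixture data.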

For experiment [2], the system named is HER3-ss+4aa/Gaussia Luciferase. The experiment is described as follows: Dox-Induced Her3-ss-Gluc Assay. The settings on record: 24 hr, doxycycline-induced, 293FRT/TO cells; read-out: 24 hr Dox Inducible Her3(ss + 4)Gluc 293FRT/TO: Mean IC50. The gist of the method:
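Compounds, diluted in DMSO/media containing doxycycline, were incubated at 37° C., 5% CO2 with cells seeded one day earlier. The cells stably express HER3-ss+4aa/Gaussia luciferase under T-REx control. Where no stereochemistry is shown, data refer to the mixture of stereoisomers.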

For experiment [3], the system named is human multiple myeloma cell line NCI-H929. In words: H929 Cell Viability Assay. The settings on record: 48 hr, NCI-H929 cells, Celltiter-Glo, read-out: 48 hr H929 Viability Celltiter-Glo: Mean EC50. Here is the method: Plates were incubated at 37° C., 5% CO2 for 48 hours. After 48 hours, Celltiter-Glo® (Promega) was added to each well and luciferase signal was quantified using Tecan Infinite M1000 Pro for cell viability determination.
For chemical structures that include one or more stereoisomers, but are illustrated without indicating stereochemistry, the assay data refers to a mixture of stereoisomers.
Background: ATP-based viability assays read luminescence as a measure of living cells.

For experiment [4], the system named is IL-2-FL/Gaussia Luciferase. In words: Dox Induced IL2-FL-Gluc Assay. Conditions: 24 hr, doxycycline-induced, 293FRT/TO cells; read-out: 24 hr Dox Inducible IL2FLGIuc 293FRT/TO: Mean IC50. The method in brief:
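Compounds were added together with doxycycline in DMSO/media and incubated at 37° C., 5% CO2. The cells were a stably selected line carrying IL-2-FL/Gaussia luciferase under T-REx inducible control. Structures drawn without stereochemistry were tested as stereoisomer mixtures.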

Experiment [5] concerns human multiple myeloma cell line U266B1. The experiment is described as follows: U266 Cell Viability Assay. Conditions: U-266, 48 hr, U266B1 cells, Celltiter-Glo, read-out: 48 hr U266 Viability Celltiter-Glo: Mean EC50. The gist of the method: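 Viability measured by CellTiter-Glo luciferase signal after 48 h compound exposure (37 °C, 5% CO2) of U266B1 cells in 384-well format. Where stereochemistry is not shown, data refer to the stereoisomer mixture.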

Experiment [6] deals with TNFα-FL/Gaussia Luciferase. In words: Dox Induced TNFα-FL-Gluc Assay. Conditions: 24 hr, doxycycline-induced, 293FRT/TO cells; read-out: 24 hr Dox Inducible TNFaFLGluc 293FRT/TO: Mean IC50. The method in brief: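 Compounds were added in doxycycline-containing DMSO/media to cells plated the previous day and incubated at 37° C under 5% CO2. These cells stably express a TNFα-FL/Gaussia luciferase cDNA whose expression is under T-REx (Dox-inducible) control, selected with Hygromycin and Blasticidin.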

SMILES strings stand for the structures. Bounds are passed on as bounds.

As a reminder, the EC50 is the concentration giving half of the maximal effect. For `CCc1nc(NC(=O)c2cccn2Cc2ccccc2)sc1C` [Compound B9, 1-benzyl-N-(4-ethyl-5-methylthiazol-2-yl)-1H-pyrrole-2-carboxamide], the IC50 is 9.43 µM in experiment [1], > 25 µM in experiment [2], > 25 µM in experiment [4] and > 25 µM in experiment [6]. In addition, the concentration giving a half-maximal response (EC50) in experiment [3] and in experiment [5] was > 25 µM throughout.

As for `CCc1cc(NC(=O)c2cccn2Cc2ccncc2)ccc1C` [Compound B10, N-(3-ethyl-4-methylphenyl)-1-(pyridin-4-ylmethyl)-1H-pyrrole-2-carboxamide], the IC50 in experiment [1] was 11.9 µM; in experiment [2], > 25 µM; in experiment [4], > 25 µM; in experiment [6], > 25 µM. Further, the EC50 in experiment [3] and in experiment [5] was > 25 µM throughout.

Regarding `CC(C)(C)c1csc(NC(=O)c2cccn2Cc2ccccc2Cl)n1` [Compound B11, N-(4-(tert-butyl)thiazol-2-yl)-1-(2-chlorobenzyl)-1H-pyrrole-2-carboxamide], the IC50 in experiment [1] was 22.7 µM; in experiment [2], 5.57 µM; in experiment [4], > 25 µM; in experiment [6], > 25 µM. In addition, the half-maximal effective concentration (EC50) in experiment [3] and in experiment [5] was > 25 µM in each case.

As for `CC(C)OC(C)(C)c1csc(NC(=O)Cc2ccc(Cc3ccncc3)[nH]2)n1` [Compound B12, N-(4-(2-isopropoxypropan-2-yl)thiazol-2-yl)-2-(5-(pyridin-4-ylmethyl)-1H-pyrrol-2-yl)acetamide], the IC50 in experiment [1], in experiment [2], in experiment [4] and in experiment [6] was > 25 µM each time. The concentration for a half-maximal effect (EC50) in experiment [3] and in experiment [5] was > 25 µM in each case.

`CN(C(=O)c1cccn1Cc1ccncc1)c1nccs1` [Compound B13]: the IC50 in experiment [1], in experiment [2], in experiment [4] and in experiment [6] was > 25 µM throughout. Besides, the EC50 in experiment [3] and in experiment [5] was > 25 µM throughout.

`CCN(C(=O)c1cccn1Cc1ccncc1)c1nccs1` [Compound B14]: the IC50 in experiment [1], in experiment [2], in experiment [4] and in experiment [6] was > 25 µM throughout. The EC50 in experiment [3] and in experiment [5] was > 25 µM in each case.

On to `N#Cc1cnc(NC(=O)c2cccn2Cc2ccncc2)s1` [Compound B15], for which the IC50 in experiment [1], in experiment [2], in experiment [4] and in experiment [6] was > 25 µM throughout. Also, the EC50 in experiment [3] and in experiment [5] was > 25 µM throughout.

In the case of `CNC(=O)c1cnc(NC(=O)c2cccn2Cc2ccncc2)s1` [Compound B16], the IC50 in experiment [1], in experiment [2], in experiment [4] and in experiment [6] was > 25 µM throughout. Moreover, the 50% effective concentration (EC50) in experiment [3] and in experiment [5] was > 25 µM in each case.

With `O=C(Nc1ncc([N+](=O)[O-])s1)c1cccn1Cc1ccncc1` [Compound B17], the IC50 in experiment [1], in experiment [2], in experiment [4] and in experiment [6] was > 25 µM each time. In addition, the EC50 in experiment [3] and in experiment [5] was > 25 µM each time.

As to `NC(=O)Cc1csc(NC(=O)c2cccn2Cc2ccncc2)n1` [Compound B18], the IC50 in experiment [1], in experiment [2], in experiment [4] and in experiment [6] was > 25 µM in each case. Moreover, the EC50 in experiment [3] and in experiment [5] was > 25 µM in each case.

Turning to `CN(C)Cc1csc(NC(=O)c2cccn2Cc2ccncc2)n1` [Compound B19], the IC50 in experiment [1], in experiment [2], in experiment [4] and in experiment [6] was > 25 µM each time. The EC50 in experiment [3] and in experiment [5] was > 25 µM each time.

The values above are taken from patent US20220153732A1, “PROTEIN SECRETION INHIBITORS” (KEZAR LIFE SCIENCES, priority 2019, published 2022).
